Data taken from patent US20190060428A1, “FORMULATIONS FOR NEOPLASIA VACCINES AND METHODS OF PREPARING THEREOF” (The Broad Institue Inc., priority 2015, published 2019).
Where “and” joins values, the source holds several entries; their conditions need not be identical. Identical values can stand only once.

Experiment: pH of peptide solutions in DMSO/D5W, with succinate, and with Hiltonol
Assay type: physicochemical
Details: not given

| Substance | pH of peptides in DMSO/D5W | pH of peptides in DMSO/D5W/5mM S. Succinate spike | pH of peptides in DMSO/D5W/5nnM Succinate and Hiltonol |
| --- | --- | --- | --- |
| H-AESAQRQGPLGGGEQSANEF-OH [CS7417] | 3.82 | 6.28 | 6.5 |
| H-AESAQRQGPNGGGEQSANEF-OH [CS7416] | 3.91 | 6.31 | 6.54 |
| H-AHRQGEKQHLLPVFSRLALRLPWRHSVQL-OH [CS6941] | 3.92 | 6.49 | 6.78 |
| H-ALSLTPGLRIGPSGLFLVFLAESAVDKGHPNRS-OH [CS7410] | 3.99 | 6.46 | 6.88 |
| H-DSAVDKGHPNRSALSLTPGLRIGPSGLFLVFLA-OH [CS7411] | 3.87 | 6.53 | 6.94 |
| H-EPDQEAVQSSTYKDCNTLHLPTERFSPVR-OH [CS6710] | 3.65 | – | – |
| H-GTKALQLHSIAGRWPRMEPWVVESMSLGVP-OH [CS7415] | 3.91 | 6.61 | 6.81 |
| H-GTYLQGTASALSQSQERPPSVNRVPPSSPSSQE-OH [CS6725] | 3.95 | – | – |
| H-IGALNPKRAAFFAEHYESWE-OH [CS7420] | 3.84 | 6.38 | 6.56 |
| H-KGASLDAGWGSPRWTTTRMTSASAGRSTRA-OH [CS7414] | 3.81 | 6.71 | 6.99 |
| H-KKNITNLSRLVVRPDTDAVY-OH [CS7431] | 3.8 | 6.45 | 6.69 |
| H-KLAWRGRISSSGCPSMTSPPSPMFGMTLHT-OH [CS6919] | 4.38 | 6.74 | 6.99 |
| H-KPKKVAGAATPKKSIKRTPKKVKKPATAAGTKK-OH [CS6717] | 4.65 | – | – |
| H-LLTDRNTSGTTFTLLGVSDYPELQVP-OH [CS7409] | 3.86 | 6.32 | 6.62 |
| H-LLTDRNTSGTTFTLLGVSDYPELQVPIPQAGLG-OH [CS7408] | 3.89 | 6.31 | 6.75 |
| H-LPVFIGNIAVNHAPVSLRPGLGLPPGAPPGTVP-OH [CS7438] | 4.24 | 6.78 | 6.96 |
| H-LPVFIGNIAVNHAPVSLRPGLGLPPGAPPLVVP-OH [CS6730] | 4.20 | – | – |
| H-LRVFIGNIAVNHAPVSLRPGLGLPPGAPPGTVP-OH [CS7412] | 4.24 | 6.61 | 6.96 |
| H-PIQVFYTKQPQNDYLHVALVSVFQIHQEAPSSQ-OH [CS6729] | 3.87 | – | – |
| H-PLMQTELHQLVPEADPEEMA-OH [CS7430] | 3.95 | 6.23 | 6.37 |
| H-PPYPYSSPSLVLPTEPHTPKSLQQPGLPS-OH [CS6715] | 4.11 | – | – |
| H-RGLHSQGLGRGRIAMAQTAGVLRSLEQEE-OH [CS6711] | 3.82 | – | – |
| H-SGQPAPEETVLFLGLLHGLLLILRRLRGG-OH [CS6937] | 3.87 | 6.51 | 6.76 |
| H-SKLPYPVAKSGKRALARGPAPTEKTPHSGAQLG-OH [CS6719] | 3.94 | – | – |
| H-SYDSVIRELLQKPNVRVVVL-OH [CS7425] | 3.78 | 6.44 | 6.65 |
| H-VEQGHVRVGPDVVTHPAFLV-OH [CS7427] | 3.72 | 6.34 | 6.52 |
| H-VQLSIQDVIRRARLSTVPTAQRVALRSGWI-OH [CS7413] | 3.9 | 6.73 | 7.02 |
| H-WDGPPENDMLLKEICGSLIP-OH [CS7432] | 3.72 | 6.22 | 6.45 |
| H-YLLPKTAVVLRCPALRVRKP-OH [CS7418] | 3.98 | 6.76 | 6.96 |

Experiment: Short-term room temperature stability of Pool 3 mixed with Hiltonol (RP-HPLC)
Assay type: physicochemical
Details: Pool 3 + Hiltonol, 4 Hours RT
Description: A peptide pool (Pool 3) consisting of the five peptides shown in Table 6 below was prepared by dissolution in DMSO and dilution with D5W/Succinate (2 mM) to 2 mg/ml and pooling to a final peptide concentration of 400 μg per ml and a final DMSO concentration of 4%. After preparation, peptides were filtered with a 25 mm Pall PES filter (Cat#4612) and dispensed into Nunc Cryo vials (#375418) in one ml aliquots.
Three samples were prepared by mixing 0.75 ml of Pool3 with 0.25 ml Hiltonol® as planned for the dosage form preparation. The samples were then left at room temperature for 0, 4 and 6 hours and analyzed by RP-HPLC (Table 7). […] As slight increase in a second peak associated with peptide CS6919 was noted, increasing from 14% to 17% and 18% at 4 and 6 hours, respectively. […] Recovery of all peptides was above 90%, indicating no breakdown and loss of any peptides in the final dosage form after 6 hour room temperature incubation.

| Substance | % Impurity | % Purity | Main Peak | Total Impurities | Total Peak |
| --- | --- | --- | --- | --- | --- |
| H-AESAQRQGPNGGGEQSANEF-OH [CS7416] | 2.56% | 97.44% | 5669.85 | 148.82 | 5818.67 |
| H-AHRQGEKQHLLPVFSRLALRLPWRHSVQL-OH [CS6941] | 0% | 100% | 6676.54 | 0 | 6676.54 |
| H-KLAWRGRISSSGCPSMTSPPSPMFGMTLHT-OH [CS6919] | 17% and 17.09% | 82.91% | 7238.56 | 1492.4 | 8730.96 |

Same assay, conditions: Pool 3 + Hiltonol, 6 Hours RT

| Substance | % Impurity | % Purity | Main Peak | Total Impurities | Total Peak |
| --- | --- | --- | --- | --- | --- |
| H-AESAQRQGPNGGGEQSANEF-OH [CS7416] | 2.1% | 97.9% | 6197.48 | 132.83 | 6330.31 |
| H-AHRQGEKQHLLPVFSRLALRLPWRHSVQL-OH [CS6941] | 0% | 100% | 7158.29 | 0 | 7158.29 |
| H-KLAWRGRISSSGCPSMTSPPSPMFGMTLHT-OH [CS6919] | 18% and 18.14% | 81.86% | 7688.89 | 1703.9 | 9392.79 |

Same assay, conditions: T0 Pool 3 + Hiltonol, RP-HPLC

| Substance | % Impurity | % Purity | Main Peak | Total Impurities | Total Peak |
| --- | --- | --- | --- | --- | --- |
| H-AESAQRQGPNGGGEQSANEF-OH [CS7416] | 2.35% | 97.65% | 5988.42 | 143.98 | 6132.4 |
| H-AHRQGEKQHLLPVFSRLALRLPWRHSVQL-OH [CS6941] | 0% | 100% | 7140.91 | 0 | 7140.91 |
| H-KLAWRGRISSSGCPSMTSPPSPMFGMTLHT-OH [CS6919] | 14% and 13.9% | 86.1% | 7786.28 | 1256.72 | 9043 |

Experiment: physchem
Details: pH 6

| Substance | solubility |
| --- | --- |
| H-STEVEPKESPHLARHRHLMKTLVKSLST-OH | > 2000 µg/mL |
| H-STLPVISDSTTKRRWSALVIGL-OH | > 2000 µg/mL |
| H-STQHADLTIIDNIKEMNFLRRYK-OH | > 2000 µg/mL |
| H-SVLREDLGQLEYKYQYAYFRMGIKHPD-OH | < 2000 µg/mL |
| H-TAQFAPSPGQPPALSPSYPGHRLPLQQG-OH | > 2000 µg/mL |
| H-TFPKKIQMLARDFLDEY-OH | > 2000 µg/mL |
| H-TGKPEMDFVRLAQLFARARPMGLF-OH | > 2000 µg/mL |
| H-TIKNSDKNVVLEHFG-OH | > 2000 µg/mL |
| H-TISLLLIFYNTKEIARTEEHQE-OH | < 2000 µg/mL |
| H-TKDRDLLVVAHDLIWKMSPRTGDAKPS-OH | > 2000 µg/mL |
| H-TKLKSKAPHWTNCILHEYKNLSTS-OH | > 2000 µg/mL |
| H-TKRQVILLHTELERFLEYLPLRF-OH | > 2000 µg/mL |
| H-TLDDIKEWLEDEGQVLNIQMRRTLHK-OH | < 2000 µg/mL |
| H-TLKEEVNELQYRQKQLELLITNLMRQVD-OH | < 2000 µg/mL |
| H-TNGPEKNSSSFPSSVDYAASGPRKL-OH | > 2000 µg/mL |
| H-TSGSSTALPGSNPSTMDSGSGD-OH | < 2000 µg/mL |
| H-TSRRLTGLLDHEVQAGRQ-OH | > 2000 µg/mL |
| H-TTSGDERLYPSPTFYIHENYLQLFE-OH | < 2000 µg/mL |
| H-TTTSVKKEELVLSEEDFQGITPGAQ-OH | < 2000 µg/mL |
| H-TTVTHERKQAKVVNPPIQEVGKGARK-OH | > 2000 µg/mL |
| H-TWAGHVSTALARPLGAPWAEPGSCGPGTN-OH | > 2000 µg/mL |

| Substance | solubility |
| --- | --- |
| H-VAGLAASGLHGSAWLVPGEQPVSGPHHGKQ-OH | > 2000 µg/mL |
| H-VARNYLREAVSHNASLEVAILRD-OH | < 2000 µg/mL |
| H-VDKNGRRRLVYLVENPGG-OH | > 2000 µg/mL |
| H-VDKNGRRRLVYLVENPGGYVAYS-OH | > 2000 µg/mL |
| H-VEQGHVRVGPDVVTHPAFLV-OH | > 2000 µg/mL |
| H-VKQLERGEASVVDFKKNLEYAAT-OH | > 2000 µg/mL |
| H-VNGISSQPQVPFYPNLQKSQYYSTV-OH | > 2000 µg/mL |
| H-VPDINMEKKLRKIRAQTQKHLDLYARDG-OH | > 2000 µg/mL |
| H-VPRIAELMNKKLPSFGPYLE-OH | > 2000 µg/mL |
| H-VQLSIQDVIRRARLSTVPTAQRVALRSGWI-OH | > 2000 µg/mL |
| H-VSGLEQLESIINFEKL-OH | > 2000 µg/mL |
| H-VSWGKKVQPIDSILADWNEDIEAFEMMEKD-OH | > 2000 µg/mL |
| H-VTSPKASPVTFPAAAFPTASPANKD-OH | > 2000 µg/mL |
| H-WCTEMKRVFGFPVHYTDVSNMS-OH | > 2000 µg/mL |
| H-WDGPPENDMLLKEICGSLIP-OH | > 2000 µg/mL |
| H-WTPAAPTAMAEVGPGHTPAHPSQGAVPP-OH | > 2000 µg/mL |
| H-YFDVVERSTEKIVDTSLIFNI-OH | < 2000 µg/mL |
| H-YLLPKTAVVLRCPALRVRKP-OH | > 2000 µg/mL |
| H-YLSHTLGAASSFMRPTVPPPQF-OH | > 2000 µg/mL |
| H-YPEPQNKEAFVHSQMYSTDYDQI-OH | > 2000 µg/mL |
| H-YRMYQKGQETSTNLIASIFA-OH | < 2000 µg/mL |
